Assay results published in patent publication US20110077702A1, “Means and Methods for Influencing Electrical Activity of Cells” (Academisch Medisch Centrum Bij de Universiteit van Amsterdam, priority 2008, published 2011).
Where two headings read alike, the source gives them in different places.

What was measured:
[1] = test system: LBB preparations; experiment: Tissue bath studies of LBB preparations of injected animals; parameters: species or system dog
[2] = test system: neonatal rat cardiac myocytes; experiment: Spontaneous activity of single control NRCMs with PDE4 inhibition; type: cell-based; details: 100 nM rolipram
Procedure: (§1) Neonatal rat cardiac myocytes and CMPCs were transduced with LV-HCN4-GFP, TBX3-GFP and LV-GFP at a MOI of 0.1, HEK 293 cells were transfected with both HCN4 and GFP or EVY deleted HCN4 and GFP. Single electrophysiological cell experiments were performed 7-10 days and 2 months after transducing NRCMs and CMPCs, respectively, or after the HEK 293 transfection. Myocytes were trypsinized during 30 seconds to prepare them for patch-clamping. By this procedure, cardiac myocytes lost their cell-to-cell connections, became less flattened (which facilitated the use of glass micropipettes), but remained attached to the coverslip.
Action potentials, If and membrane currents were recorded at 36±0.2° using the perforated patch-clamp technique (Axopatch 200B Clamp amplifier, Axon Instruments Inc.). Signals were low-pass filtered (cut-off frequency: 5-kHz) and digitized at 5-kHz. Series resistance was compensated by ≧80%, and potentials were corrected for the estimated 15-mV change in liquid-junction potential. For voltage control, data acquisition, and analysis, custom-made software was used. Superfusion solution contained (mM): 140 NaCl, 5.4 KCl, 1.8 CaCl2, 1.0 MgCl2, 5.5 glucose, 5 HEPES; pH 7.4 (NaOH). Pipettes (2-3 MΩ, borosilicate glass) were filled with solution containing (mM): 125 K-gluc, 20 KCl, 5 NaCl, 0.22 amphotericin-B, 10 HEPES; pH 7.2 (KOH).

[3] = test system: neonatal rat cardiac myocytes overexpressing HCN4; experiment: If activation curve, perforated patch-clamp, in HCN4 overexpressing NRCMs with PDE4 inhibition; type: cell-based; details: 100 nM rolipram
Procedure: as §1
Action potentials, If and membrane currents were recorded at 36±0.2° using the perforated patch-clamp technique (Axopatch 200B Clamp amplifier, Axon Instruments Inc.). Signals were low-pass filtered (cut-off frequency: 5-kHz) and digitized at 5-kHz. Series resistance was compensated by ≧80%, and potentials were corrected for the estimated 15-mV change in liquid-junction potential. […]
If was characterized using custom voltage-clamp protocols modified from those published previously.^14,27 For current-voltage (I-V) relationships and activation properties, If was measured as Cs^+ sensitive (5 mM) current during 6-s hyperpolarizing steps (range −30 to −110 mV) from a holding potential of −30 mV. […]

## COc1cc2c(cc1OC)CC(=O)N(CCCN(C)C[C@H]1Cc3cc(OC)c(OC)cc31)CC2 [Ivabradine]
[1]; isoproterenol enhanced rhythm, HCN2/SkM1 injected animals
  spontaneous rate of HCN2/SkM1 preparation: reductions in rate

## CC(C)NCC(O)c1ccc(O)c(O)c1 (stereo not shown) [isoproterenol, Isoproterenol]
[1]
  spontaneous rate of HCN2/SkM1 preparation: robust spontaneous activity sensitive to isoproterenol

## COc1ccc(C2CNC(=O)C2)cc1OC1CCCC1 (stereo not shown) [rolipram]
[2]
  spontaneous activity: remarkable increase in spontaneous activity
[3]
  shift in the If activation curve: rightward shift in the If activation curve
